Source: patent US20160002204A1 (Board of Regents, The University of Texas System, priority 2014, published 2016)

Columns and labels:
[1] = target: T1, GLS1 (purified recombinant human GAC) (Homo sapiens, UniProt O94925); experiment: GLS1 enzymatic activity assay (dual-coupled, Amplex UltraRed/resorufin); assay type: biochemical
T1 sequence (O94925 55-598 isoform O94925-3 limits assumed): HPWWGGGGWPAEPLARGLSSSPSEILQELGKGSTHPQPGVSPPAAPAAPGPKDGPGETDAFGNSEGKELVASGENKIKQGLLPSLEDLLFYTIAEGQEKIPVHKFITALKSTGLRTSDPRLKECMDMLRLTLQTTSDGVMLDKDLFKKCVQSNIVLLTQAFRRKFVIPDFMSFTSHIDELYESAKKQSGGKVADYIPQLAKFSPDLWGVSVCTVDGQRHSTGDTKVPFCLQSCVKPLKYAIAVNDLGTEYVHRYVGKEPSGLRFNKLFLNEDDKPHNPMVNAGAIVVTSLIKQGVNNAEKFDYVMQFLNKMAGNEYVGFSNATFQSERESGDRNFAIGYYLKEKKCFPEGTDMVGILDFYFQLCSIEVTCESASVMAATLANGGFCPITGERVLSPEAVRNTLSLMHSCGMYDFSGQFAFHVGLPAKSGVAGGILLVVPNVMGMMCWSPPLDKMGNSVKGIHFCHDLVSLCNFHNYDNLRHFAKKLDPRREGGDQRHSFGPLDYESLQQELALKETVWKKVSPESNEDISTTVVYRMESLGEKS
Summary of the method: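 In this coupled fluorometric format, phosphate-activated GAC (2 nM, 50 mM phosphate) is pre-exposed to compound for 10 min before 1 mM glutamine addition. Product is tracked as resorufin (530/590 nm) over time or at 20 min, and potency is derived by logistic fitting.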

A549 cells = experiment: A549 proliferation (viability) assay, Cell Titer Fluor, 72 hours; assay type: cell-based; conditions: Homo sapiens
Summary of the method: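 Compound was added to A549 cells (1000/well, pre-grown 24 h in RPMI 1640 plus 10% dialyzed FBS) at 0.5% DMSO and left 72 h under 37 °C, 5% CO2, ambient O2. Live-cell fluorescence (Cell Titer Fluor) gave the EC50.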

SMILES | IC50 [1] | EC50 (A549 cells)
CCNC(=O)Nc1ccn(CCCCc2ccc(NC(=O)Cc3ccccc3)nn2)c(=O)n1 [Example 86, N-[6-(4-{4-[(ethylcarbamoyl)amino]-2-oxo-1,2-dihydropyrimidin-1-yl}butyl)pyridazin-3-yl]-2-phenylacetamide] | 500 to 5000 nM | > 5000 nM
CC(C)NC(=O)Nc1ccn(CCCCc2ccc(NC(=O)Cc3ccccc3)nn2)c(=O)n1 [Example 87, N-{6-[4-(2-oxo-4-{[(propan-2-yl)carbamoyl]amino}-1,2-dihydropyrimidin-1-yl)butyl]pyridazin-3-yl}-2-phenylacetamide] | 500 to 5000 nM | > 5000 nM
O=C(Cc1ccccc1)Nc1ccc(CCCCn2ccc(NC(=O)NC3CCCCC3)nc2=O)nn1 [Example 88, N-[6-(4-{4-[(cyclohexylcarbamoyl)amino]-2-oxo-1,2-dihydropyrimidin-1-yl}butyl)pyridazin-3-yl]-2-phenylacetamide] | 100 to 500 nM | 500 to 5000 nM
C[C@@H](NC(=O)Nc1ccn(CCCCc2ccc(NC(=O)Cc3ccccc3)nn2)c(=O)n1)c1ccccc1 [Example 89, N-(6-{4-[2-oxo-4-({[(1R)-1-phenylethyl]carbamoyl}amino)-1,2-dihydropyrimidin-1-yl]butyl}pyridazin-3-yl)-2-phenylacetamide] | 100 to 500 nM | > 5000 nM
C[C@H](NC(=O)Nc1ccn(CCCCc2ccc(NC(=O)Cc3ccccc3)nn2)c(=O)n1)c1ccccc1 [Example 90, N-(6-{4-[2-oxo-4-({[(1S)-1-phenylethyl]carbamoyl}amino)-1,2-dihydropyrimidin-1-yl]butyl}pyridazin-3-yl)-2-phenylacetamide] | 100 to 500 nM | > 5000 nM
O=C(Cc1cccc(OC(F)(F)F)c1)Nc1ccn(CCCCn2ccc(NC(=O)Cc3cccc(OC(F)(F)F)c3)nc2=O)c(=O)n1 [Example 91, N-{2-oxo-1-[4-(2-oxo-4-{2-[3-(trifluoromethoxy)phenyl]acetamido}-1,2-dihydropyrimidin-1-yl)butyl]-1,2-dihydropyrimidin-4-yl}-2-[3-(trifluoromethoxy)phenyl]acetamide] | < 100 nM | 100 to 500 nM
CC(=O)Nc1ccn(CCCCc2ccc(NC(=O)Cc3ccccc3)nn2)c(=O)n1 [Example 92, N-{6-[4-(4-acetamido-2-oxo-1,2-dihydropyrimidin-1-yl)butyl]pyridazin-3-yl}-2-phenylacetamide] | < 100 nM | 500 to 5000 nM
COC(=O)Nc1ccn(CCCCc2ccc(NC(=O)Cc3ccccc3)nn2)c(=O)n1 [Example 93, methyl N-(2-oxo-1-{4-[6-(2-phenylacetamido)pyridazin-3-yl]butyl}-1,2-dihydropyrimidin-4-yl)carbamate] | 100 to 500 nM | 500 to 5000 nM
CC(C)OC(=O)Nc1ccn(CCCCc2ccc(NC(=O)Cc3ccccc3)nn2)c(=O)n1 [Example 94, propan-2-yl N-(2-oxo-1-{4-[6-(2-phenylacetamido)pyridazin-3-yl]butyl}-1,2-dihydropyrimidin-4-yl)carbamate] | < 100 nM | 100 to 500 nM
O=C(Cc1ccccc1)Nc1ccc(CCCCn2ccc(NC(=O)OC3CCCCC3)nc2=O)nn1 [Example 95, cyclohexyl N-(2-oxo-1-{4-[6-(2-phenylacetamido)pyridazin-3-yl]butyl}-1,2-dihydropyrimidin-4-yl)carbamate] | < 100 nM | < 100 nM
O=C(Cc1ccccc1)Nc1ccc(CCCCn2ccc(NC(=O)OCc3ccccc3)nc2=O)nn1 [Example 96, benzyl N-(2-oxo-1-{4-[6-(2-phenylacetamido)pyridazin-3-yl]butyl}-1,2-dihydropyrimidin-4-yl)carbamate] | < 100 nM | 100 to 500 nM
O=C(Cc1ccccc1)Nc1ccc(CCCCn2ccc(NC(=O)Oc3ccccc3)nc2=O)nn1 [Example 97, phenyl N-(2-oxo-1-{4-[6-(2-phenylacetamido)pyridazin-3-yl]butyl}-1,2-dihydropyrimidin-4-yl)carbamate] | 100 to 500 nM | > 5000 nM
CC(C)COC(=O)Nc1ccn(CCCCc2ccc(NC(=O)Cc3ccccc3)nn2)c(=O)n1 [Example 98, 2-methylpropyl N-(2-oxo-1-{4-[6-(2-phenylacetamido)pyridazin-3-yl]butyl}-1,2-dihydropyrimidin-4-yl)carbamate] | < 100 nM | 100 to 500 nM
O=C(Cc1ccccc1)Nc1ccc(CCCCn2ccc(NC(=O)Cc3cccc(OC(F)(F)F)c3)nc2=O)nn1 [Example 99, N-{6-[4-(2-oxo-4-{2-[3-(trifluoromethoxy)phenyl]acetamido}-1,2-dihydropyrimidin-1-yl)butyl]pyridazin-3-yl}-2-phenylacetamide] | < 100 nM | < 100 nM
O=C(Cc1ccccc1)Nc1ccc(CCCCn2ccc(NC(=O)[C@H](O)c3ccccc3)nc2=O)nn1 [Example 100, (2R)-2-hydroxy-N-(2-oxo-1-{4-[6-(2-phenylacetamido)pyridazin-3-yl]butyl}-1,2-dihydropyrimidin-4-yl)-2-phenylacetamide] | < 100 nM | 500 to 5000 nM
O=C(Cc1cccc(OC(F)(F)F)c1)Nc1ccc(CCCCn2ccc(NC(=O)[C@H](O)c3ccccc3)nc2=O)nn1 [Example 101, (2R)-2-hydroxy-N-{2-oxo-1-[4-(6-{2-[3-(trifluoro-methoxy)phenyl]acetamido}pyridazin-3-yl)butyl]-1,2-dihydropyrimidin-4-yl}-2-phenylacetamide] | < 100 nM | 100 to 500 nM

More lines, now with the values ahead:

IC50 [1] | EC50 (A549 cells) | SMILES
< 100 nM | 100 to 500 nM | CC(C)OC(=O)Nc1ccn(CCCCc2ccc(NC(=O)Cc3cccc(OC(F)(F)F)c3)nn2)c(=O)n1 [Example 102, propan-2-yl N-{2-oxo-1-[4-(6-{2-[3-(trifluoromethoxy)phenyl]acetamido}pyridazin-3-yl)butyl]-1,2-dihydropyrimidin-4-yl}carbamate]
< 100 nM | < 100 nM | O=C(Cc1cccc(OC(F)(F)F)c1)Nc1ccc(CCCCn2ccc(NC(=O)OC3CCCCC3)nc2=O)nn1 [Example 103, cyclohexyl N-{2-oxo-1-[4-(6-{2-[3-(trifluoromethoxy)phenyl]acetamido}pyridazin-3-yl)butyl]-1,2-dihydropyrimidin-4-yl}carbamate]
< 100 nM | < 100 nM | CC(C)COC(=O)Nc1ccn(CCCCc2ccc(NC(=O)Cc3cccc(OC(F)(F)F)c3)nn2)c(=O)n1 [Example 104, 2-methylpropyl N-{2-oxo-1-[4-(6-{2-[3-(trifluoro-methoxy)phenyl]acetamido}pyridazin-3-yl)butyl]-1,2-dihydropyrimidin-4-yl}carbamate]
< 100 nM | 100 to 500 nM | O=C(Cc1cccc(OC(F)(F)F)c1)Nc1ccc(CCCCn2ccc(NC(=O)OC3CCOCC3)nc2=O)nn1 [Example 105, oxan-4-yl N-{2-oxo-1-[4-(6-{2-[3-(trifluoromethoxy)phenyl]acetamido}pyridazin-3-yl)butyl]-1,2-dihydropyrimidin-4-yl}carbamate]
100 to 500 nM | 500 to 5000 nM | CC(C)NC(=O)Nc1ccn(CCCCc2ccc(NC(=O)Cc3cccc(OC(F)(F)F)c3)nn2)c(=O)n1 [Example 106, N-{6-[4-(2-oxo-4-{[(propan-2-yl)carbamoyl]amino}-1,2-dihydropyrimidin-1-yl)butyl]pyridazin-3-yl}-2-[3-(trifluoromethoxy)phenyl]acetamide]
< 100 nM | 500 to 5000 nM | O=C(Cc1cccc(OC(F)(F)F)c1)Nc1ccc(CCCCn2ccc(NC(=O)NC3CCCCC3)nc2=O)nn1 [Example 107, N-[6-(4-{4-[(cyclohexylcarbamoyl)amino]-2-oxo-1,2-dihydropyrimidin-1-yl}butyl)pyridazin-3-yl]-2-[3-(trifluoromethoxy)phenyl]acetamide]
< 100 nM | < 100 nM | O=C(Cc1cccc(OC(F)(F)F)c1)Nc1ccc(CCCCn2ccc(NC(=O)CC3CCCCC3)nc2=O)nn1 [Example 108, N-(6-{4-[4-(2-cyclohexylacetamido)-2-oxo-1,2-dihydropyrimidin-1-yl]butyl}pyridazin-3-yl)-2-[3-(trifluoromethoxy)phenyl]acetamide]
100 to 500 nM | 500 to 5000 nM | O=C(Cc1cccc(OC(F)(F)F)c1)Nc1ccc(CCCCn2ccc(NC(=O)CCN3CCCC3)nc2=O)nn1 [Example 109, N-{2-oxo-1-[4-(6-{2-[3-(trifluoromethoxy)phenyl]acetamido}pyridazin-3-yl)butyl]-1,2-dihydropyrimidin-4-yl}-3-(pyrrolidin-1-yl)propanamide]
< 100 nM | 100 to 500 nM | CS(=O)(=O)CCC(=O)Nc1ccn(CCCCc2ccc(NC(=O)Cc3cccc(OC(F)(F)F)c3)nn2)c(=O)n1 [Example 110, 3-methanesulfonyl-N-{2-oxo-1-[4-(6-{2-[3-(trifluoro-methoxy)phenyl]acetamido}pyridazin-3-yl)butyl]-1,2-dihydropyrimidin-4-yl}propanamide]
